Reference: patent US7060292B2, “Lipid structures and uses thereof” (GESynthesis, Inc., priority 2001, dated 2006)
Values belong to the compound of their own block, whether it stands above or below them.

How the values were obtained:
[1] = Movement across bilayer into vesicle interior containing cyclodextrin-esterified DPH (permeability coefficient); type: physicochemical
Method: Calculation of permeability coefficient (P). The rate constant (kn) for and maximum extent of (Δm) fluorescence change are determined using direct curve fitting procedures (nonlinear regression) assuming that test substance movement is a simple first order process. Deviation from first-order kinetics may be encountered when test compound movement into, out of, or across the membrane is carrier- or channel-mediated or the drug concentration approaches saturation. […] In general an increasing signal takes the form: Et=Eb+En(1−e^−k^n^t)+En+1(1−e^−k^n+1^t)+. . . and a decreasing signal takes the form: Et=Eb+Ene^−k^n^t+En+1e^−k^n+1^t+. . . , where Et is the fluorescence of the system at time t, En is the fluorescence of the system either at time zero (for a decreasing signal) or infinity (for an increasing signal), Eb is the system fluorescence insensitive to addition or removal of test compound, t is time, and kn is the rate constant describing the rate of fluorescence decrease or increase. If more than one first order process is detected, the second or third processes are characterized by En+1, and kn+1 and by En+2 and kn+2, respectively.
The half-life for test compound movement across the bilayer is computed from the rate constant as t1/2=0.693/kn.
The molar flux (v) of a test compound across the membrane is computed as […]

[2] = Stein 1985; cited from earlier work
[3] = pKa and ionization of test compounds; type: physicochemical

diffusion coefficient Dm ([1]; computed from P and K assuming λ=40×10^−8 cm): 3.9×10^−7 cm^−2·s^−1
SMILES: CCO [ethanol]
rate constant kn for uptake into vesicle interior ([1]; 10 μg lipid vesicles in 2 ml buffer, 10 μl ethanol): 62.9 per second | diffusion coefficient Dm, reported value [2]: 1.5×10^−7 cm^−2s^−1

SMILES: CCCCCC(=O)O [hexanoic acid]
percentage ionized ([3]; pH 4.0): ~13% | percentage ionized ([3]; pH 7.0): > 99%

ionization ([3]; pH 4.0 and pH 7.0): not substantially ionized at either pH
SMILES: CCCCCCO [hexanol]
